From patent US20240182456A1, “2-((4-((S)-2-(4-CHLORO-2-FLUOROPHENYL)-2-METHYLBENZO[D][1,3]DIOXOL-4-YL)PIPERIDIN-1-YL)METHYL)-1-(((S)-OXETAN-2-YL)METHYL)-1H-IMIDAZOLE DERIVATIVES AS ACTIVATORS OF THE GLP1 RECEPTOR FOR THE TREATMENT OF OBESITY” (Novartis AG, priority 2021, published 2024)
Where two headings read alike, the source gives them in different places.

Assays:
human GLP1R (hGLP1R) = human GLP1R (hGLP1R) (Homo sapiens, UniProt P43220); experiment: Human GLP1R cAMP agonist assay (GloSensor); assay type: cell-based; conditions: for Emax: read-out: Emax mean; for EC50: intracellular cAMP, mean n=3 where SEM is given
Procedure: (§1) Compounds 1 to 31 were tested in the following cellular assays that measure the intracellular cAMP concentration, beta-arrestin recruitment and receptor internalization. The cAMP is generated by the activation of GLP1R. The cAMP data obtained is shown in Table 1 (where S.E.M. is included, mean n=3 independent experiments+/−S.E.M). Beta-arrestin is recruited upon activation of GLP1R and the data obtained are shown in Table 2 (mean n=2 independent experiments, +/−S.D). The extent to which the GLP1R is internalized into the cell and away from the plasma membrane following activation is also shown in Table 2 (mean n=2 independent experiments, +/−S.D). EC50 for each assay is defined as the concentration of the compound that leads to half of the maximum response (after baseline correction). Emax is defined as the maximum response observed for the test compound, normalized to the maximum response observed for the endogenous ligand (GLP1(7-36)) to GLP1R.
Human GLP1R cAMP Agonist Assay
The agonist activity of compounds was determined using the GloSensor™ cAMP Assay (Promega Corp.), which measures changes in the intracellular concentration of cAMP after ligand activation of GPCRs. The assay uses a biosensor encoded by pGloSensor™-22F cAMP plasmid (Promega, cat #E2301) with cAMP binding domains fused to a mutant form of Photinus pyralis luciferase. Binding to cAMP causes conformational changes that promote large increases in light output, which can be measured by a luminescence detector. HEK293-SNAP-hGLP1R-GloSensor cells stably overexpressing the human GLP1 receptor (hGLP1R) and pGloSensor™-22F were seeded in white 384-well poly-D-Lysine coated plates (Greiner Bio One, cat #781945) in CO2-independent media (Gibco cat #18045-088 with 1.0% FBS, 2 mM L-glutamine, penicillin and streptomycin) and incubated overnight at 37° C., 5% CO2 with humidity. The assay was started the following morning by adding an equal volume of CO2-independent media containing 4% v/v dilution of the GloSensor substrate (Promega, cat #E1291) to all wells. The cell plate was incubated at rt for 2 h in the dark. The Biomek 7 (Beckman Coulter) instrument was used for the liquid handling steps. To generate duplicate dose response curves, 3-fold serially diluted compounds were added in to the cell assay plate to a final volume of 60 μL with final concentrations ranging from 30 μM through 0.06 μM in CO2-independent media containing 0.1% BSA, 0.5 mM IBMX and 0.4% DMSO. In the same plate and assay buffer as the tested compounds, were EC100 control wells containing GLP1 (7-36) peptide (Bachem, cat #H-6795) at a final concentration of 2 nM and also EC0 control wells containing no peptide. This plate was incubated at rt in the dark for 12 min after adding the compounds to the cells. Luminescence was then measured with an Envision 2104 Multilabel reader with “TRF Light Unit, 337 nm” (PerkinElmer) using the Ultra-Sensitive protocol setting “384-well US luminescence detector” with the 384-well luminescence aperture, 0.1 seconds per well. cAMP activity was calculated as percent of the GLP1 (7-36) EC100 control wells: [(sample signal−mean EC0 signal)/(mean EC100 of GLP1 (7-36) signal−mean EC0 signal)}*100. Curve fitting for EC50 determinations was performed in the Helios module of the software package DAVID. The 4-parameter logistic model, Hill slope was used: y=Ainf+(A0−Ainf)/(1+(x/AC50)^Hill Slope) where y is the functional response; x is the compound concentration; A0 is the minimum value (at 0 dose); Ainf is the maximum value (at infinite dose); AC50 corresponds to the point of inflection (i.e. the point on the sigmoid shaped curve halfway between A0 and Ainf). The EC50 value was represented by the AC50 value calculated from Helios in μM. Emax is the maximal activity detected within the concentration range, derived from the fitted curve. […]

human GLP1R = human GLP1R (Homo sapiens, UniProt P43220); experiment: Human GLP1R DERET internalization assay; assay type: cell-based; conditions: HEK293-SNAP-hGLP1R-GloSensor cells; for EC50: mean n=2; for Emax: relative to GLP1(7-36)
Procedure: as §1
The extent to which agonists internalize the human GLP1R was determined based on an optimized version of a RealTime FRET-based ‘DERET’ (Dissociation Enhanced Resonance Energy Transfer) assay. The technology relies on labeling of the SNAP-tagged GPCR with a SNAP-Lumi-Terbium (donor fluorophore, Cisbio, cat #SSNPTBD). The compounds are incubated with the cells over-expressing the GPCR of interest in the presence of an excess of fluorescein (acceptor fluorophore). When the GPCR is on the cell surface, the donor signal is quenched by the acceptor and the donor/acceptor ratio is low. As the GPCR internalizes, the donor signal is no longer quenched, and the acceptor is no longer excited so the donor/acceptor ratio increases.
HEK293-SNAP-hGLP1R-GloSensor cells (stably overexpressing SNAP-tagged hGLP1R) were seeded overnight in white 384-well poly-D-Lysine coated plates (Greiner Bio One, cat #781945) in regular DMEM growth medium (Gibco, cat #11965-092, 10% heat-inactivated FBS, 10 mM HEPES, 1× penicillin/streptomycin, 0.5 mg/mL geneticin (Gibco, cat #10131-035) and 0.25 mg/mL hygromycin B (Invitrogen, cat #10687010). On the assay day, cell medium was removed and 100 nM SNAP-Lumi-Tb reagent was added in Opti-MEM solution. The cells were incubated at 37° C. for 1 h. Cells were washed using a plate washer in assay buffer [1×HBSS (10× Gibco, cat #14065-056), 20 mM Hepes (Gibco, cat #15630-080), 1 mM CaCl2 (Fluka, cat #21114-1L), 1 mM MgCl2 (Ambion, cat #AM9530G) pH7.4], and 20 μL buffer with 0.1% BSA was added to each well. After leaving cells to equilibrate for ˜15 min at 37° C., 10 μL of Fluorescein (sodium salt, Sigma, cat #F6377, diluted in buffer) was added at 25 μM final concentration. To generate triplicate dose response curves, compounds were serially diluted 3-fold in assay buffer, then added to the cell assay plate to a final volume of 40 μL and final top concentrations starting at 30 μM. In the same plate and assay buffer as the tested compounds, a GLP1 (7-36) peptide (Bachem, cat #H-6795) control curve was included at a final top concentration of 1 μM in order to establish EC100. EC0 wells with buffer only were also included. The plate FRET fluorescence was measured immediately using a Perkin Elmer Envision with LANCE/DELFIA D400 single mirror, excitation filter X320, and emission filters M615_203 (donor emission) and M515 (acceptor emission), and then measured every 30 min. […] Plates were kept at 37° C. between reads. Data was expressed as the ratio of donor/acceptor emissions using Microsoft Excel and plotted in GraphPad Prism. In order to determine EC50 and Emax for internalization, data was calculated and expressed as percent of the GLP1 (7-36) EC100 control wells: [(sample signal−mean EC0 signal)/(mean EC100 of GLP1 (7-36) signal−mean EC0 signal)]*100 using Microsoft Excel. Curve fitting for EC50 determinations was performed using GraphPad Prism. The 4-parameter logistic model, Hill slope was used:
Y=Bottom+(Top−Bottom)/(1+10^((Log EC50−X)*Hill Slope)), […]

[1] = HEK293-SNAP-hGLP1R-GloSensor cells, cAMP, normalized to GLP1(7-36) maximum response
[2] = HEK293-SNAP-hGLP1R-GloSensor cells

Sequence of human GLP1R (P43220 24-463): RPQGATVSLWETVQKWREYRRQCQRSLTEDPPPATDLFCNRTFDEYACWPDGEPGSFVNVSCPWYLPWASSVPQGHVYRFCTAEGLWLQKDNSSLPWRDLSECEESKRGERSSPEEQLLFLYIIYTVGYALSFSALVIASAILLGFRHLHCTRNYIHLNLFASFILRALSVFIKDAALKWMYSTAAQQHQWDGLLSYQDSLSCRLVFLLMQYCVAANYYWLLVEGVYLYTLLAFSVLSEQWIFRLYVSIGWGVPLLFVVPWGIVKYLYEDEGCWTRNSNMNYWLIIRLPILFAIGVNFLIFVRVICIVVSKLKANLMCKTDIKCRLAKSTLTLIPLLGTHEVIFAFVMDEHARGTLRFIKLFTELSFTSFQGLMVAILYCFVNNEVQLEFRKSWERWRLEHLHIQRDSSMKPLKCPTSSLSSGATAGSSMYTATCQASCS
Sequence of human GLP1R (hGLP1R) (P43220 24-463): as above

| SMILES | Emax (human GLP1R (hGLP1R); [1]) [%] | EC50 (human GLP1R (hGLP1R); [2]) [nM] | EC50 (human GLP1R) [nM] | Emax (human GLP1R) [%] | Emax (human GLP1R (hGLP1R)) [%] |
| --- | --- | --- | --- | --- | --- |
| Cc1nc(CN2CCC(c3cccc4c3O[C@@](C)(c3ccc(Cl)cc3F)O4)CC2)n(C[C@@H]2CCO2)c1C#CC(=O)O [Compound C-22, 3-(2-((4-((S)-2-(4-chloro-2-fluorophenyl)-2-methylbenzo[d][1,3]dioxol-4-yl)piperidin-1-yl)methyl)-4-methyl-1-(((S)-oxetan-2-yl)methyl)-1H-imidazol-5-yl)propiolic acid] | 102 | 0.00397 | 18 | 76 |  |
| C[C@]1(c2ccc(Cl)cc2F)Oc2cccc(C3CCN(Cc4nc(C(F)(F)F)c(/C=C/C(=O)O)n4C[C@@H]4CCO4)CC3)c2O1 [Compound C-8, (E)-3-(2-((4-((S)-2-(4-chloro-2-fluorophenyl)-2-methylbenzo[d][1,3]dioxol-4-yl)piperidin-1-yl)methyl)-1-(((S)-oxetan-2-yl)methyl)-4-(trifluoromethyl)-1H-imidazol-5-yl)acrylic acid] | 108 | 0.0606 | > 30000 | 9.5 |  |
| Cc1nc(CN2CCC(c3cccc4c3O[C@@](C)(c3ccc(Cl)cc3F)O4)CC2)n(C[C@@H]2CCO2)c1/C=C(/F)C(=O)O [Compound C-19a, (E)-3-(2-((4-((S)-2-(4-chloro-2-fluorophenyl)-2-methylbenzo[d][1,3]dioxol-4-yl)piperidin-1-yl)methyl)-4-methyl-1-(((S)-oxetan-2-yl)methyl)-1H-imidazol-5-yl)-2-fluoroacrylic acid] | 110 | 0.0137 | 86 | 27 |  |
| Cc1c(-c2cccc(C(=O)O)c2)nc(CN2CCC(c3cccc4c3O[C@@](C)(c3ccc(Cl)cc3F)O4)CC2)n1C[C@@H]1CCO1 [Compound C-10, 3-(2-((4-((S)-2-(4-chloro-2-fluorophenyl)-2-methylbenzo[d][1,3]dioxol-4-yl)piperidin-1-yl)methyl)-5-methyl-1-(((S)-oxetan-2-yl)methyl)-1H-imidazol-4-yl)benzoic acid] | 107 | 0.898 | > 30000 | 2 |  |
| Cc1nc(CN2CCC(c3cccc4c3O[C@@](C)(c3ccc(Cl)cc3F)O4)CC2)n(C[C@@H]2CCO2)c1/C=C(\F)C(=O)O [Compound C-19b, (Z)-3-(2-((4-((S)-2-(4-chloro-2-fluorophenyl)-2-methylbenzo[d][1,3]dioxol-4-yl)piperidin-1-yl)methyl)-4-methyl-1-(((S)-oxetan-2-yl)methyl)-1H-imidazol-5-yl)-2-fluoroacrylic acid] | 111 | 0.98 | > 30000 | 27 |  |
| C[C@]1(c2ccc(Cl)cc2F)Oc2cccc(C3CCN(Cc4nc(C(F)(F)F)c(-c5nnn[nH]5)n4C[C@@H]4CCO4)CC3)c2O1 [Compound C-24, 4-((S)-2-(4-chloro-2-fluorophenyl)-2-methylbenzo[d][1,3]dioxol-4-yl)-1-((1-(((S)-oxetan-2-yl)methyl)-5-(1H-tetrazol-5-yl)-4-(trifluoromethyl)-1H-imidazol-2-yl)methyl)piperidine] |  | 0.784 | > 30000 | -3 | 112 |
| C[C@]1(c2ccc(Cl)cc2F)Oc2cccc(C3CCN(Cc4nc(C(F)(F)F)c(-c5nc(=O)o[nH]5)n4C[C@@H]4CCO4)CC3)c2O1 [Compound C-26, 3-(2-((4-((S)-2-(4-chloro-2-fluorophenyl)-2-methylbenzo[d][1,3]dioxol-4-yl)piperidin-1-yl)methyl)-1-(((S)-oxetan-2-yl)methyl)-4-(trifluoromethyl)-1H-imidazol-5-yl)-1,2,4-oxadiazol-5(2H)-one] |  | 0.922 | > 30000 | -6 | 99 |
| Cc1nc(CN2CCC(c3cccc4c3O[C@@](C)(c3ccc(Cl)cc3F)O4)CC2)n(C[C@@H]2CCO2)c1C(=O)NCC(=O)O [Compound C-16, (2-((4-((S)-2-(4-chloro-2-fluorophenyl)-2-methylbenzo[d][1,3]dioxol-4-yl)piperidin-1-yl)methyl)-4-methyl-1-(((S)-oxetan-2-yl)methyl)-1H-imidazole-5-carbonyl)glycine] | 105 | 8.49 | > 30000 | 8 |  |
| Cc1c(/C=C/C(=O)O)nc(CN2CCC(c3cccc4c3O[C@@](C)(c3ccc(Cl)cc3F)O4)CC2)n1C[C@@H]1CCO1 [Compound C-6, (E)-3-(2-((4-((S)-2-(4-chloro-2-fluorophenyl)-2-methylbenzo[d][1,3]dioxol-4-yl)piperidin-1-yl)methyl)-5-methyl-1-(((S)-oxetan-2-yl)methyl)-1H-imidazol-4-yl)acrylic acid] | 105 | 6.72 | > 30000 | 5 |  |
| Cc1nc(CN2CCC(c3cccc4c3O[C@@](C)(c3ccc(Cl)cc3F)O4)CC2)n(C[C@@H]2CCO2)c1CC(F)C(=O)O (stereo partly drawn) [Compound C-15, 3-(2-((4-((S)-2-(4-chloro-2-fluorophenyl)-2-methylbenzo[d][1,3]dioxol-4-yl)piperidin-1-yl)methyl)-4-methyl-1-(((S)-oxetan-2-yl)methyl)-1H-imidazol-5-yl)-2-fluoropropanoic acid] | 109 | 0.253 | > 30000 | 41 |  |
